Assay results reported in patent US7767659B2, “Synthesis of naturally occurring ecteinascidins and related compounds” (Pharma Mar, S.A., priority 2002, dated 2010).
Read-outs that look alike come from different tables or passages of the source.

Assays:
LoVo = assay: cells; conditions: for GI50: read-out: LOVO GI50; for CC50: read-out: LOVO LC50
Outline: (§1)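 Colorimetric SRB read (490 nm) on triplicate wells after 48 h at 37 °C, 5% CO2. Dose range 10 to 10^−8 μg/ml; 5×10^3 cells/well pre-attached 18 h.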

A-549 = assay: cells; conditions: for GI50: read-out: GI50 A549; for CC50: read-out: LC50 A549
Outline: as §1

HT-29 = assay: cells; conditions: for GI50: read-out: GI50 HT29; for CC50: read-out: LC50 HT29
Outline: as §1

K-562 = assay: Inhibition of cells growth by colorimetric assay (SRB); conditions: for GI50: read-out: K562 GI50; for CC50: read-out: K562 LC50
Outline: as §1

IGROV-ET = assay: as above; conditions: for GI50: read-out: IGROV-ET GI50; for CC50: read-out: IGROV-ET LC50
Outline: as §1

HeLa = assay: as above; conditions: for GI50: read-out: HELA GI50; for CC50: read-out: HELA LC50
Outline: as §1

LoVo-Dox = assay: as above; conditions: for GI50: read-out: LOVO-DOX GI50; for CC50: read-out: LOVO-DOX LC50
Outline: as §1

HeLa-APL = assay: as above; conditions: for GI50: read-out: HELA-APL GI50; for CC50: read-out: HELA-APL LC50
Outline: as §1

SK-BR-3 = assay: as above; conditions: for GI50: read-out: SK-BR3 GI50; for CC50: read-out: SK-BR3 LC50
Outline: as §1

LNCaP = assay: as above; conditions: for GI50: read-out: GI50 LNCAP; for CC50: read-out: LC50 LNCAP
Outline: as §1

PANC-1 = assay: as above; conditions: for GI50: read-out: PANC-1 GI50; for CC50: read-out: PANC-1 LC50
Outline: as §1

SK-MEL-28 = assay: as above; conditions: for GI50: read-out: GI50 MEL-28; for CC50: read-out: LC50 MEL-28
Outline: as §1

IGROV-1 = assay: as above; conditions: for GI50: read-out: IGROV GI50; for CC50: read-out: IGROV LC50
Outline: as §1

DU-145 = assay: as above; conditions: for GI50: read-out: GI50 DU145; for CC50: read-out: LC50 DU145
Outline: as §1

Work on COc1c(C)cc2c(c1OC(=O)/C=C/c1ccccc1)[C@H]1N[C@@H](C2)[C@H](C#N)N2C1[C@@H]1SCC(NC(=O)C(F)(F)F)C(=O)OC[C@H]2c2c3c(c(C)c(OC(C)=O)c21)OCO3 (stereo partly drawn) [compound 34] yielded a GI50 (LoVo; Homo sapiens, LoVo, 48 h) of 28.7 nM, a CC50 (LoVo; Homo sapiens, LoVo, 48 h) of 98.6 nM and an IC (TGI) (LoVo; Homo sapiens, LoVo, 48 h, read-out: LOVO TGI) of 53.2 nM. It also gave a GI50 (A-549; Homo sapiens, A549, 48 h) of 55.3 nM, a CC50 (A-549; Homo sapiens, A549, 48 h) of 611 nM and an IC (TGI) (A-549; Homo sapiens, A549, 48 h, read-out: TGI A549) of 184 nM. The GI50 (HT-29; Homo sapiens, HT-29, 48 h) was 62 nM, the CC50 (HT-29; Homo sapiens, HT-29, 48 h) was 1640 nM and the IC (TGI) (HT-29; Homo sapiens, HT-29, 48 h, read-out: TGI HT29) was 165 nM. The GI50 (K-562; Homo sapiens, K562, 48 h) was 16.2 nM, the CC50 (K-562; Homo sapiens, K562, 48 h) was 146 nM and the IC (TGI) (K-562; Homo sapiens, K562, 48 h, read-out: K562 TGI) was 45 nM. For the same compound, the GI50 (IGROV-ET; Homo sapiens, 48 h) was 89.5 nM, the CC50 (IGROV-ET; Homo sapiens, 48 h) was 860 nM and the IC (TGI) (IGROV-ET; Homo sapiens, 48 h, read-out: IGROV-ET TGI) was 262 nM. It also gave a GI50 (HeLa; Homo sapiens, HeLa, 48 h) of 33.5 nM, a CC50 (HeLa; Homo sapiens, HeLa, 48 h) of 116 nM and an IC (TGI) (HeLa; Homo sapiens, HeLa, 48 h, read-out: HELA TGI) of 62.4 nM. The GI50 (LoVo-Dox; Homo sapiens, 48 h) was 140 nM, the CC50 (LoVo-Dox; Homo sapiens, 48 h) was 12000 nM and the IC (TGI) (LoVo-Dox; Homo sapiens, 48 h, read-out: LOVO-DOX TGI) was 410 nM. The GI50 (HeLa-APL; Homo sapiens, 48 h) was 33.9 nM, the CC50 (HeLa-APL; Homo sapiens, 48 h) was 108 nM and the IC (TGI) (HeLa-APL; Homo sapiens, 48 h, read-out: HELA-APL TGI) was 60.5 nM. It also gave a GI50 (SK-BR-3; Homo sapiens, SK-BR-3, 48 h) of 12.7 nM, a CC50 (SK-BR-3; Homo sapiens, SK-BR-3, 48 h) of 626 nM and an IC (TGI) (SK-BR-3; Homo sapiens, SK-BR-3, 48 h, read-out: SK-BR3 TGI) of 70.1 nM. For the same compound, the GI50 (LNCaP; Homo sapiens, LNCaP, 48 h) was 22 nM, the CC50 (LNCaP; Homo sapiens, LNCaP, 48 h) was 147 nM and the IC (TGI) (LNCaP; Homo sapiens, LNCaP, 48 h, read-out: TGI LNCAP) was 52.1 nM. The GI50 (PANC-1; Homo sapiens, PANC-1, 48 h) was 51.1 nM, the CC50 (PANC-1; Homo sapiens, PANC-1, 48 h) was 841 nM and the IC (TGI) (PANC-1; Homo sapiens, PANC-1, 48 h, read-out: PANC-1 TGI) was 123 nM. The GI50 (SK-MEL-28; Homo sapiens, SK-MEL-28, 48 h) was 32.7 nM, the CC50 (SK-MEL-28; Homo sapiens, SK-MEL-28, 48 h) was 111 nM and the IC (TGI) (SK-MEL-28; Homo sapiens, SK-MEL-28, 48 h, read-out: TGI MEL-28) was 60.3 nM. For the same compound, the GI50 (IGROV-1; Homo sapiens, IGROV-1, 48 h) was 29.2 nM, the CC50 (IGROV-1; Homo sapiens, IGROV-1, 48 h) was 117 nM and the IC (TGI) (IGROV-1; Homo sapiens, IGROV-1, 48 h, read-out: IGROV TGI) was 58.3 nM. For the same compound, the GI50 (DU-145; Homo sapiens, DU-145, 48 h) was 51.1 nM, the CC50 (DU-145; Homo sapiens, DU-145, 48 h) was 53.7 nM and the IC (TGI) (DU-145; Homo sapiens, DU-145, 48 h, read-out: TGI DU145) was 98.7 nM.

With COc1c(C)cc2c(c1O)C1C3C4SCC(NC(C)=O)C(=O)OCC(c5c6c(c(C)c(OC(C)=O)c54)OCO6)N3C(C#N)C(C2)N1C(C)=O (stereo not drawn) [compound 35] the “LOVO TGI” value (LoVo; SRB assay, 48 hours exposure, LOVO, total growth inhibition) was 2.14E−06 Molar, the GI50 (LoVo; SRB assay, 48 hours exposure, LOVO) was 564 nM and the CC50 (LoVo; SRB assay, 48 hours exposure, LOVO, cell killing) was 14400 nM. For the same compound, the “TGI A549” value (A-549; A549, SRB, 48 hours exposure) was 5.96E−06 Molar, the GI50 (A-549; A549, SRB, 48 hours exposure) was 2930 nM and the CC50 (A-549; A549, SRB, 48 hours exposure) was 12100 nM. For the same compound, the “TGI HT29” value (HT-29; HT29, SRB, 48 hours exposure) was 8.18E−06 Molar, the GI50 (HT-29; HT29, SRB, 48 hours exposure) was 602 nM and the CC50 (HT-29; HT29, SRB, 48 hours exposure) was 14400 nM. For the same compound, the “K562 TGI” value (K-562; SRB assay, 48 hours exposure, K562, total growth inhibition) was 1.13E−06 Molar, the GI50 (K-562; SRB assay, 48 hours exposure, K562) was 193 nM and the CC50 (K-562; SRB assay, 48 hours exposure, K562, cell killing) was 9770 nM. The “IGROV-ET TGI” value (IGROV-ET; SRB assay, 48 hours exposure, IGROV-ET, total growth inhibition) was 6.35E−06 Molar, the GI50 (IGROV-ET; SRB assay, 48 hours exposure, IGROV-ET) was 2300 nM and the CC50 (IGROV-ET; SRB assay, 48 hours exposure, IGROV-ET, cell killing) was 14400 nM. The “HELA TGI” value (HeLa; SRB assay, 48 hours exposure, HELA, total growth inhibition) was 8.37E−07 Molar, the GI50 (HeLa; SRB assay, 48 hours exposure, HELA) was 396 nM and the CC50 (HeLa; SRB assay, 48 hours exposure, HELA, cell killing) was 3390 nM. The “LOVO-DOX TGI” value (LoVo-Dox; SRB assay, 48 hours exposure, LOVO-DOX, total growth inhibition) was 1.44E−05 Molar, the GI50 (LoVo-Dox; SRB assay, 48 hours exposure, LOVO-DOX) was 5750 nM and the CC50 (LoVo-Dox; SRB assay, 48 hours exposure, LOVO-DOX, cell killing) was 14400 nM. The “HELA-APL TGI” value (HeLa-APL; SRB assay, 48 hours exposure, HELA-APL, total growth inhibition) was 1.09E−06 Molar, the GI50 (HeLa-APL; SRB assay, 48 hours exposure, HELA-APL) was 458 nM and the CC50 (HeLa-APL; SRB assay, 48 hours exposure, HELA-APL, cell killing) was 5920 nM. For the same compound, the “SK-BR3 TGI” value (SK-BR-3; SRB assay, 48 hours exposure, SK-BR3, total growth inhibition) was 1.10E−06 Molar, the GI50 (SK-BR-3; SRB assay, 48 hours exposure, SK-BR3) was 396 nM and the CC50 (SK-BR-3; SRB assay, 48 hours exposure, SK-BR3, cell killing) was 9350 nM. The “TGI LNCAP” value (LNCaP; LNCAP, SRB, 48 hours exposure) was 3.97E−07 Molar, the GI50 (LNCaP; LNCAP, SRB, 48 hours exposure) was 189 nM and the CC50 (LNCaP; LNCAP, SRB, 48 hours exposure) was 834 nM. The “PANC-1 TGI” value (PANC-1; SRB assay, 48 hours exposure, PANC-1, total growth inhibition) was 1.41E−06 Molar, the GI50 (PANC-1; SRB assay, 48 hours exposure, PANC-1) was 471 nM and the CC50 (PANC-1; SRB assay, 48 hours exposure, PANC-1, cell killing) was 14400 nM. The “TGI MEL-28” value (SK-MEL-28; MEL-28, SRB, 48 hours exposure) was 8.63E−07 Molar, the GI50 (SK-MEL-28; MEL-28, SRB, 48 hours exposure) was 390 nM and the CC50 (SK-MEL-28; MEL-28, SRB, 48 hours exposure) was 3190 nM. The “IGROV TGI” value (IGROV-1; SRB assay, 48 hours exposure, IGROV, total growth inhibition) was 1.69E−06 Molar, the GI50 (IGROV-1; SRB assay, 48 hours exposure, IGROV) was 420 nM and the CC50 (IGROV-1; SRB assay, 48 hours exposure, IGROV, cell killing) was 8630 nM. The “TGI DU145” value (DU-145; DU145, SRB, 48 hours exposure) was 1.20E−06 Molar, the GI50 (DU-145; DU145, SRB, 48 hours exposure) was 570 nM and the CC50 (DU-145; DU145, SRB, 48 hours exposure) was 10300 nM.
